Laboratory results from patent US20230337677A1, “ARYL AND PYRIDYL AMIDE PESTICIDES AND COMPOSITIONS THEREOF” (University of Florida Research Foundation, Incorporated, priority 2019, published 2023).
Like-named read-outs stand apart in the source and are kept apart here.

Key:
[1] = test system: Aedes aegypti and Anopheles gambiae female adults; assay: Analysis of topical toxicity (statements in words, species not given); assay type: in vivo; settings: structure-activity analysis of Table 4
Experimental: The Aedes aegypti strains Orlando (sensitive) as well as the Puerto Rico (PR, resistant to permethrin) were used. The Anopheles gambiae (G3 sensitive strain, as well as Akron kdr (Akdr) strain, resistant to pyrethroids were also assessed. The larvae were provided by the USDA, Gainesville Fl, and raised in a pan with tap water maintained at 28° C. Larvae were fed a ground liver and yeast mixture, and pupae were placed in emergence cages. Adults were held at 28° C. and provided with cotton balls soaked in 10% sugar water for rearing and for all bioassays.
Female adults from 3 to 6 days were used for the experiments. The drug was dissolved in ethanol and then applied with a micro-applicator on the thorax, between the legs: 200 nL of drug per female mosquito, with different concentrations of the drug; 10 mosquitos were treated together per concentration per replicate, and put together in a small container with free access to sweet water. Mortality, i.e. no visible movement, was assessed 24 hours after treatment. Every compound was assessed on at least 3 different cohorts of mosquitoes, and the LD50 values and slopes were determined with Probit analysis, corrected with Abbott's formula. […]

[2] = test system: Aedes aegypti strain Orlando (sensitive); assay: Topical toxicity (24 hour mortality), Ae. aegypti Orlando; assay type: in vivo; settings: topical application, 24 h mortality, female adults, susceptible Orlando strain
Summary of the method: (§1)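 Females aged 3–6 days received 200 nL of compound in ethanol topically on the thorax, 10 per concentration per replicate, and were kept at 28° C with sugar water.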

[3] = test system: Anopheles gambiae G3 sensitive strain; assay: Topical toxicity (24 hour mortality), An. gambiae G3; assay type: in vivo; settings: topical application, 24 h mortality, female adults, susceptible strain G3
Summary of the method: as §1

[4] = test system: Anopheles gambiae Akron kdr (Akdr) strain, resistant to pyrethroids; assay: Topical toxicity (24 hour mortality), An. gambiae Akdr; assay type: in vivo; settings: for An. gambiae AKDR LD50: topical application, 24 h mortality, female adults, pyrethroid-resistant Akdr strain
Summary of the method: as §1

[5] = test system: Aedes aegypti mosquitoes, insecticide-susceptible Orlando strain; assay type: in vivo; settings: for 1 h % Repellency, 100 μg/cm^2: screened at 100 μg/cm^2, strain not given; for 1 h Repellency EC50, μg/cm^2: (OR); for 1h EC50 (μg/cm^2) / 1h % repellency: Table 3A; for 1h % repellency: Screened at μg/cm^2
Summary of the method: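 Sixteen female mosquitoes per glass tube facing netting-shielded filter paper treated with acetone solutions (30-0.01 μg/ml; screen at 100 μg/cm^2), no contact. Proportion on treated side scored up to 60 min, then flight-out checked 30 min; mortality after 24 hr constant exposure.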

[6] = test system: Aedes aegypti mosquitoes, insecticide-susceptible Orlando strain; settings: for 24h % mortality: Screened at μg/cm^2
[7] = test system: Aedes aegypti mosquitoes, insecticide-susceptible Orlando strain; assay: whole plant or invertebrate; settings: 24 h, read-out: 24 h % Mortality, 100 μg/cm^2
[8] = test system: Aedes aegypti mosquitoes, pyrethroid-resistant Puerto Rico strain; assay: Vapor repellency glass tube assay (1 h), resistant strain; assay type: in vivo; settings: with resistance ratio (PR)
[9] = test system: Aedes aegypti mosquitoes, pyrethroid-resistant Puerto Rico strain; assay: Vapor toxicity (24 h lethality under constant exposure in glass tubes), resistant strain; settings: LC50, with resistance ratio (PR)
[10] = Mammalian toxicity, oral gavage; assay type: in vivo; settings: ICR, in vivo; Table 3A; oral gavage; preliminary mouse screening
Experimental: Mice ([…] strain ICR, body weight between 20 and 26 g, 35 days old+/−4 days), were force fed with compounds solubilized in olive oil to a volume of 10 μL per gram of mouse via 1 mL disposable syringes attached to 22 gauge metal canulas directly in the stomach following the Institutional Animal Care and Use Committee (IACUC) standard procedure. One hour after gavage, mice were returned to food and water access ad libitum. Dose tested ranged from 60 up to 600 mg/kg of mice, following the method recommended by the US EPA to reduce the number of mice used to determine the LD50 doses. Mice were monitored after drug administration during the first hour, and then every 4 hours up to 24 hours. The surviving mice were humanely sacrificed. Any mice displaying a high state of pain/distress would also be considered as not surviving the treatment and were sacrificed before the end of the investigation. The […] was determined using the AOT425StatPgm software; the study was registered and approved by IACUC under number 201810416.

O=C(Nc1cc(Cl)nc(Cl)c1)c1c(F)c(F)c(F)c(F)c1F [GMR089]
topical toxicity, statement in words (Example 10) [1]: reduction in toxicity | Ae. aegypti OR LD50 [2]: >6000 ng/mg | An. gambiae G3 LD50 [3]: >100 ng/mg | An. gambiae AKDR LD50 [4]: >100 ng/mg

O=C(Nc1cc(Cl)nc(C(F)(F)F)c1)C(F)(C(F)(F)F)C(F)(F)F [GMR092, N-(2-chloro-6-(trifluoromethyl)pyridin-4-yl)-2,3,3,3-tetrafluoro-2-(trifluoromethyl)propanamide]
topical toxicity, statement in words (Example 10) [1]: retained high mortality | Ae. aegypti OR LD50 [2]: 8.8 ng/mg | An. gambiae G3 LD50 [3]: 9.60 ng/mg | An. gambiae RR (resistance ratio) ([4]; 24 h LD50 resistant strain (AKDR)/24 h LD50 susceptible strain (G3)): 0.3 | An. gambiae AKDR LD50 [4]: 3.30 ng/mg

C/C=C\C[C@H]1C(=O)CC[C@@H]1CC(=O)Nc1cc(F)c(F)c(F)c1 [GMR098]
topical toxicity, statement in words (Example 10) [1]: reduced toxicity | 1 h % Repellency, 100 μg/cm^2 [5]: 18% | Ae. aegypti OR LD50 [2]: >6000 ng/mg | An. gambiae G3 LD50 [3]: >1000 ng/mg | An. gambiae AKDR LD50 [4]: >1000 ng/mg | 24 h % Mortality, 100 μg/cm^2 ([6]; in vivo): 0%

O=C(NC(=O)c1cc(Cl)nc(Cl)c1)c1cc(Cl)nc(Cl)c1 [GMR117]
topical toxicity, statement in words (Example 10) [1]: reduced activity | 1 h % Repellency, 100 μg/cm^2 [5]: 62% | vapor repellency / mortality, statement in words (Example 8) ([5]; structure-activity analysis of Table 2): some repellency and mortality | Ae. aegypti OR LD50 [2]: >1500 ng/mg | mortality at 100 µg/cm2 [7]: 100%

O=C(Nc1cc(Cl)nc(Cl)c1)C(F)(F)Sc1ccc(F)cc1 [GMR147]
topical toxicity, statement in words (Example 10) [1]: reduction in toxicity | Ae. aegypti OR LD50 [2]: 1983 ng/mg

CC(=O)Nc1ccccc1C(F)(F)F [MTFI-1-4A]
1 h Repellency EC50, μg/cm^2 [5]: 26 μg/cm^2 | 1 h % Repellency, 100 μg/cm^2 [5]: 78% | 1 h Repellency EC50, μg/cm^2 (RR) [8]: 81 μg/cm^2

O=C(Nc1cc(C(F)(F)F)cc(C(F)(F)F)c1)C(F)F [MTFI-4-2B]
1 h Repellency EC50, μg/cm^2 [5]: 15 μg/cm^2 | 1 h % Repellency, 100 μg/cm^2 [5]: 100% | 1 h Repellency EC50, μg/cm^2 (RR) [8]: 24 μg/cm^2 | mortality at 100 µg/cm2 [7]: 88%

O=C(Nc1cc(F)c(F)c(F)c1)C(F)(F)C(F)(F)C(F)(F)F [MTFI-5-3A, 2,2,3,3,4,4,4-heptafluoro-N-(3,4,5-trifluorophenyl)butanamide]
24 h LC50, μg/cm^2 (RR) [9]: 11 μg/cm^2 | 1 h Repellency EC50, μg/cm^2 [5]: 2.9 μg/cm^2 | repellency EC50, compound alone ([5]; alone, FIG. 3 / FIG. 4): 2.9 μg/cm^2 | 1 h % Repellency, 100 μg/cm^2 [5]: 68% | 1 h Repellency EC50, μg/cm^2 (RR) [8]: 4.5 μg/cm^2 | 24 h LC50, μg/cm^2 ([6]; 24 h, LC50 (OR)): 13 μg/cm^2 | mortality at 100 µg/cm2 [7]: 100%

C/C=C/C1C(C(=O)OCc2c(F)c(F)c(COC)c(F)c2F)C1(C)C (stereo not drawn) [Metofluthrin, metofluthrin, reference compound]
24 h LC50, μg/cm^2 (RR) [9]: 43 μg/cm^2 | 1 h Repellency EC50, μg/cm^2 [5]: 0.3 μg/cm^2 | 1 h Repellency EC50, μg/cm^2 (RR) [8]: 12 μg/cm^2 | 24 h LC50, μg/cm^2 ([6]; 24 h, LC50 (OR)): 0.84 μg/cm^2

CC1(C)[C@H](C=C(Cl)Cl)[C@H]1C(=O)OCc1c(F)c(F)cc(F)c1F [Transfluthrin, transfluthrin, reference compound]
24 h LC50, μg/cm^2 (RR) [9]: 7.6 μg/cm^2 | 1 h Repellency EC50, μg/cm^2 [5]: 0.5 μg/cm^2 | 1 h Repellency EC50, μg/cm^2 (RR) [8]: 2.3 μg/cm^2 | 24 h LC50, μg/cm^2 ([6]; 24 h, LC50 (OR)): 0.16 μg/cm^2

O=C(Nc1c(Cl)cc(C(F)(F)F)cc1Cl)C(F)(F)C(F)(F)F [compound 41]
1h EC50 (μg/cm^2) [5]: 5.30 μg/cm^2 | 1h % repellency [5]: 66% | LD50 at 24 h [10]: 200 mg/kg | 24 h LC50, μg/cm^2 ([6]; Table 3A): 0.27 μg/cm^2 | 24h % mortality ([6]; Table 3A): 100%

O=C(Nc1cc(F)c(F)c(F)c1)C(F)(F)C(F)(F)C(F)(F)F [compound 52]
1h EC50 (μg/cm^2) [5]: 2.92 μg/cm^2 | 1h % repellency [5]: 68% | LD50 at 24 h [10]: > 2000 mg/kg | 24 h LC50, μg/cm^2 ([6]; Table 3A): 13.30 μg/cm^2 | 24h % mortality ([6]; Table 3A): 100%
